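In this assay, cells in 96-well plates receive the compound at five concentrations for 48 hours. Endpoints are linearly interpolated between the surrounding concentrations. GI50 marks 50% less growth. TGI: total growth inhibition.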
What was measured:
Assay in all cases: DTP human tumour cell line panel, 48 h
SNB-75 CNS = system: SNB-75 CNS
KM12 colon = system: KM12 colon
NCI-H522 lung = system: NCI-H522 lung
HOP-92 NSCLC = system: HOP-92 NSCLC
COLO 205 colon = system: COLO 205 colon
UACC-62 melanoma = system: UACC-62 melanoma
DU-145 prostate = system: DU-145 prostate
A549 NSCLC = system: A549 NSCLC
M14 melanoma = system: M14 melanoma
HCT-15 colon = system: HCT-15 colon
MALME-3M melanoma = system: MALME-3M melanoma
SN12C renal = system: SN12C renal
SK-MEL-5 melanoma = system: SK-MEL-5 melanoma
UACC-257 melanoma = system: UACC-257 melanoma
SK-MEL-2 melanoma = system: SK-MEL-2 melanoma
OVCAR-5 ovarian = system: OVCAR-5 ovarian
PC-3 prostate = system: PC-3 prostate
LOX IMVI melanoma = system: LOX IMVI melanoma
ACHN renal = system: ACHN renal
UO-31 renal = system: UO-31 renal
BT-549 breast = system: BT-549 breast
NCI-H226 lung = system: NCI-H226 lung
HCT-116 colon = system: HCT-116 colon
MDA-MB-231 breast = system: MDA-MB-231 breast
RXF 393 renal = system: RXF 393 renal
IGROV1 ovarian = system: IGROV1 ovarian
U251 CNS = system: U251 CNS
HOP-62 NSCLC = system: HOP-62 NSCLC
MOLT-4 leukemia = system: MOLT-4 leukemia

Structure (SMILES): CCC(=C/[C@H](C)C/C=C/C(C)=C/[C@@H](C)C(=O)[C@@H](C)[C@H](O)[C@@H](C)CC)/C=C/[C@@H]1OC(=O)C=C[C@@H]1C
- TGI (SNB-75 CNS): 77.3 nM
- GI50 (KM12 colon): < 5 nM
- TGI (KM12 colon): 5170 nM
- GI50 (NCI-H522 lung): < 5 nM
- TGI (NCI-H522 lung): 81.7 nM
- GI50 (HOP-92 NSCLC): < 5 nM
- TGI (HOP-92 NSCLC): < 5 nM
- GI50 (COLO 205 colon): < 5 nM
- TGI (COLO 205 colon): < 5 nM
- GI50 (UACC-62 melanoma): < 5 nM
- TGI (UACC-62 melanoma): 243 nM
- GI50 (DU-145 prostate): < 5 nM
- TGI (DU-145 prostate): 5710 nM
- GI50 (A549 NSCLC): < 5 nM
- TGI (A549 NSCLC): 7020 nM
- GI50 (M14 melanoma): < 5 nM
- TGI (M14 melanoma): < 5 nM
- GI50 (HCT-15 colon): < 5 nM
- TGI (HCT-15 colon): 409 nM
- GI50 (MALME-3M melanoma): < 5 nM
- TGI (MALME-3M melanoma): 253 nM
- GI50 (SN12C renal): < 5 nM
- TGI (SN12C renal): 4320 nM
- GI50 (SK-MEL-5 melanoma): < 5 nM
- TGI (SK-MEL-5 melanoma): < 5 nM
- GI50 (UACC-257 melanoma): < 5 nM
- TGI (UACC-257 melanoma): 8900 nM
- GI50 (SK-MEL-2 melanoma): < 5 nM
- TGI (SK-MEL-2 melanoma): 3030 nM
- GI50 (OVCAR-5 ovarian): < 5 nM
- TGI (OVCAR-5 ovarian): 4740 nM
- GI50 (PC-3 prostate): < 5 nM
- TGI (PC-3 prostate): 5940 nM
- GI50 (LOX IMVI melanoma): < 5 nM
- TGI (LOX IMVI melanoma): 584 nM
- GI50 (ACHN renal): < 5 nM
- TGI (ACHN renal): 6290 nM
- GI50 (UO-31 renal): < 5 nM
- TGI (UO-31 renal): 214 nM
- GI50 (BT-549 breast): < 5 nM
- TGI (BT-549 breast): < 5 nM
- GI50 (NCI-H226 lung): < 5 nM
- TGI (NCI-H226 lung): < 5 nM
- GI50 (HCT-116 colon): < 5 nM
- TGI (HCT-116 colon): < 5 nM
- GI50 (MDA-MB-231 breast): < 5 nM
- TGI (MDA-MB-231 breast): 4640 nM
- GI50 (RXF 393 renal): < 5 nM
- TGI (RXF 393 renal): 71.1 nM
- GI50 (IGROV1 ovarian): 92.6 nM
- TGI (IGROV1 ovarian): 7880 nM
- GI50 (U251 CNS): < 5 nM
- TGI (U251 CNS): 2060 nM
- GI50 (HOP-62 NSCLC): < 5 nM
- TGI (HOP-62 NSCLC): 874 nM
- GI50 (MOLT-4 leukemia): < 5 nM
- TGI (MOLT-4 leukemia): < 5 nM
